According to patent publication US4443438A (priority 1978, dated 1984):
Where two headings read alike, the source gives them in different places.

Tests used:
[1] = tested on: pesticide-resistant green rice leafhopper (Nephotettix cincticeps); assay: whole plant or invertebrate; assay type: in vivo; conditions: for mortality at 0.0125 % / mortality at 0.0225 %: Nephotettix cincticeps, 24 h, read-out: Mortality (%) after 24 hours
Procedure: The dilute solution was sprayed on rice plants in a 180-ml plastic cup at a rate of 15 cc/3 cups by means of a turn table. After air-drying, the treated rice plants were placed in a 5-liter beaker which was then covered with gauze. About 15 female adults of pesticide-resistant green rice leafhopper (Nephotettix cincticeps) were released in the beaker. After 3 hours, the knock-down ratio was examined, and after 24 hours the mortality was examined.

[2] = tested on: green rice leafhoppers (Nephotettix cincticeps); assay: Density index of green rice leafhopper adults in paddy field, sweeping method (Experimental example 1); assay type: in vivo; conditions: 3 kg/10 are, untreated = 100
[3] = tested on: pesticide-resistant green rice leafhopper (Nephotettix cincticeps); assay: Mortality of pesticide-resistant green rice leafhopper on dusted rice plants (Experimental example 3); assay type: in vivo; conditions: 2 kg/10 are
Procedure: The dusts (36), (37), (39), (43), (47) or (48) prepared in Preparation example 2 were each applied by means of a Bell jar duster to rice plants in a 1/10,000 are Wagner's pot at a rate of 2 kg/10 are. The treated pot was placed in a cylinder (diameter 20 cm, height 60 cm) which was then covered with gauze. About 30 female adults of pesticide-resistant green rice leafhopper (Nephotettix cincticeps) were liberated therein. After 24 hours, the mortality was examined.

in vivo = conditions: mouse, po
[4] = Fish toxicity to carps, TLm48 (Experimental example 6); assay type: in vivo; conditions: carp, in vivo, read-out: TLm48 (ppm)
Procedure: (§1) Ten liters of the dilute solution was placed in a 10-liter glass vessel and 10 carps were liberated therein. After 48 hours, the dead and alive were examined to calculate TLm48 (ppm).

[5] = tested on: rice stem borer (Chilo suppressalis); assay: Mortality of rice stem borer on dusted rice plants (Experimental example 4); assay type: in vivo; conditions: 3 kg/10 are, five days after application, 7200 min
Description: About 50 eggs just before hatch of rice stem borer (Chilo suppressalis) were put on rice plants at the tiller stage cultivated in a 1/5,000 are Wagner's pot. After 5 days, the dust (1) prepared in Preparation example 2 was applied thereto at a rate of 3 kg/10are by means of a Bell jar duster. Five days after application, the rice stem was dissected to observe the dead and alive of rice stem borers.

harmful organisms = conditions: reported in Published Unexamined Japanese Patent Application No. 125145/1977; cited from earlier work
carps = assay: Fish toxicity to carps, TLm48 (Experimental example 6); assay type: in vivo; conditions: as 0.3% dust; 48 hours
Procedure: as §1

[6] = as 20% wettable powder, diluted 25,000 times
[7] = 25% wettable powder, diluted 2,000 times

CC1(C)C(C=C(Cl)Cl)C1C(=O)OC(C#N)c1cccc(Oc2ccc(Br)cc2)c1 (racemic)
Knock-down ratio (%) after 3 hours [1, 6]: 50%
Mortality (%) after 24 hours [1, 6]: 80%

CC1(C)C(C=C(Cl)Cl)C1C(=O)OC(C#N)c1cccc(Oc2ccc(Br)cc2)c1 (racemic) [m-(p-bromophenoxy)-α-cyanolbenzyl trans- or trans-rich-2,2-dimethyl-3-(2,2-dichlorovinyl)cyclopropanecarboxylate]
Density index After 2 days ([2]; as 0.1% dust): 5
Density index After 15 days ([2]; as 0.1% dust): 25
Mortality (%) after 24 hours ([3]; as 0.05% dust): 85%
LD50 at 24 h (in vivo): > 2000 mg/kg

CC1(C)[C@H](C=C(Cl)Cl)[C@H]1C(=O)OC(C#N)c1cccc(Oc2ccc(Br)cc2)c1 (relative stereo) [Compound of the formula (I) [dl(acid moiety)-trans isomer], m-(p-bromophenoxy)-α-cyanolbenzyl trans- or trans-rich-2,2-dimethyl-3-(2,2-dichlorovinyl)cyclopropanecarboxylate]
Density index After 2 days ([2]; as 0.1% dust): 3
Density index After 15 days ([2]; as 0.1% dust): 18
LC50 at 48 h ([4]; as 0.1% dust): > 5 µg/mL
Mortality (%) ([5]; as 0.1% dust): 20%
LD50 at 24 h (in vivo): > 2000 mg/kg

CCC(C)c1ccccc1OC(=O)NC (centres unmarked) [BPMC, 2-sec-Butylphenyl N-methylcarbamate]
Knock-down ratio (%) after 3 hours [1, 7]: 3%
mortality at 0.0125 % [1, 7]: 3%

COP(=S)(OC)Oc1ccc(SC)c(C)c1 [Baycid, O,O-Dimethyl O-[3-methyl-4-(methylthio)phenyl]thiophosphate]
mortality at 0.0225 % [1]: 20%
Knock-down ratio (%) after 3 hours ([1]; in vivo): 0%

CCOP(=S)(OCC)Oc1cc(C)nc(C(C)C)n1 [Diazinon, O,O-Diethyl O-(2-isopropyl-4-methyl-6-pyrimidinyl)phosphorothioate]
Density index After 2 days ([2]; as 5% dust): 20
Density index After 15 days ([2]; as 5% dust): 35
LC50 at 48 h ([4]; as 0.3% dust): > 5 µg/mL

CC(C)OP(=O)(OC(C)C)SCc1ccccc1 [IBP, O,O-Diisopropyl S-benzylphosphorothioate]
LC50 at 48 h ([4]; as 0.3% dust): > 5 µg/mL
mortality at 0.0225 % [1]: 0%
Knock-down ratio (%) after 3 hours ([1]; in vivo): 0%

CCCOP(=O)(OCCC)Oc1ccc(SC)cc1 [Kayaphos, O,O-Di-n-propyl p-methylthiophenylphosphate]
Mortality (%) after 24 hours ([3]; as 2% dust): 43%

CNC(=O)Oc1ccc(C)c(C)c1 [MPMC, 3,4-Xylyl N-methylcarbamate]
Density index After 2 days ([2]; as 3% dust): 7
Density index After 15 days ([2]; as 3% dust): 60
Knock-down ratio (%) after 3 hours [1, 7]: 10%
mortality at 0.0125 % [1]: 10%

CNC(=O)Oc1cccc(C)c1 [MTMC, m-Tolyl N-methylcarbamate]
Mortality (%) after 24 hours ([3]; as 2% dust): 30%

CNC(=O)Oc1cccc2ccccc12 [NAC, 1-Naphthyl N-methylcarbamate]
mortality at 0.0125 % [1]: 10%

CNC(=O)Oc1ccccc1OC(C)C [PHC, 2-Isopropoxyphenyl N-methylcarbamate]
LC50 at 48 h ([4]; as 0.3% dust): > 5 µg/mL

COP(=S)(OC)Oc1ccc([N+](=O)[O-])c(C)c1 [Sumithion, O,O-Dimethyl O-(3-methyl-4-nitrophenyl)phosphorothioate]
Density index After 2 days ([2]; as 5% dust): 60
Density index After 15 days ([2]; as 5% dust): 95
Mortality (%) after 24 hours ([3]; as 2% dust): 10%
Mortality (%) ([5]; as 3% dust): 70%
mortality at 0.0225 % [1]: 15%
Knock-down ratio (%) after 3 hours ([1]; in vivo): 0%
LD50 at 24 h (in vivo): > 1000 mg/kg

CC1(C)C(C=C(Cl)Cl)C1C(=O)OC(C#N)c1cccc(Oc2ccc(Br)cc2)c1 (stereo not drawn) [compound of the formula (I), m-(p-bromophenoxy)-α-cyanolbenzyl trans- or trans-rich-2,2-dimethyl-3-(2,2-dichlorovinyl)cyclopropanecarboxylate]
insecticidal and acaricidal activity (harmful organisms): has insecticidal and acaricidal activity

m-Isopropylphenoxy N-methylcarbamate [MIPC]
TLm48 (ppm) (carps): > 5 ppm
